Key:
Neutrophil [1] = assay: Reduction of chemotaxis in human neutrophils assessed as inhibition of fMLP-OMe-induced cell migration pretreated 10 mins before fMLP-OMe challenge; type: functional, cell-based
Neutrophil [2] = assay: Reduction of chemotaxis in human neutrophils assessed as inhibition of IL8-induced cell migration pretreated 10 mins before IL8 challenge; type: functional, cell-based
[3] = Cytotoxicity against human neutrophils assessed as LDH release; type: cell-based; design: concentration or dose not given beside the values; conditions: neutrophil
Mus musculus [4] = assay: Antiinflammatory activity against zymosan-induced peritonitis in Swiss mouse assessed as inhibition of granulocyte infiltration into peritoneal cavity at 100 mg/kg, po administered 1 hr before zymosan challenge measured after 4 hrs; type: functional
Neutrophil [5] = assay: Inhibition of chemotaxis in human neutrophils assessed as reduction of fMLP-OMe-induced cell migration at 10 uM relative to control; type: functional
Mus musculus [6] = assay: Antiinflammatory activity against zymosan-induced peritonitis in Swiss mouse assessed as protein concentration at 50 mg/kg, po administered 1 hr before zymosan challenge by spectrophotometry; type: functional
Mus musculus [7] = assay: Antiinflammatory activity against zymosan-induced peritonitis in Swiss mouse assessed as monocyte and lymphocyte content in peritoneal cavity at 50 mg/kg, po administered 1 hr before zymosan challenge measured after 4 hrs; type: functional
Mus musculus [8] = assay: Antiinflammatory activity against zymosan-induced peritonitis in Swiss mouse assessed as inhibition of granulocyte infiltration into peritoneal cavity at 50 mg/kg, po administered 1 hr before zymosan challenge measured after 4 hrs; type: functional; design: scale not given: the % may be the effect or the level left
Mus musculus [9] = assay: Antiinflammatory activity against zymosan-induced peritonitis in Swiss mouse assessed as peritoneal protein concentration at 3 mg/kg, po administered 1 hr before zymosan challenge by spectrophotometry; type: functional
Mus musculus [10] = assay: Antiinflammatory activity against zymosan-induced peritonitis in Swiss mouse assessed as granulocyte content in peritoneal cavity lavage at 3 mg/kg, po administered 1 hr before zymosan challenge measured after 4 hrs; type: functional
Mus musculus [11] = assay: Antiinflammatory activity against zymosan-induced peritonitis in Swiss mouse assessed as monocyte and lymphocyte content in peritoneal cavity lavage at 3 mg/kg, po administered 1 hr before zymosan challenge measured after 4 hrs; type: functional
Mus musculus [12] = assay: Antiinflammatory activity against zymosan-induced peritonitis in Swiss mouse assessed as inhibition of granulocyte infiltration into peritoneal cavity at 3 mg/kg, po administered 1 hr before zymosan challenge measured after 4 hrs; type: functional; design: scale not given: the % may be the effect or the level left

| SMILES | IC50 (Neutrophil [1]; read-out: IC50) [nM] | IC50 (Neutrophil [2]) [pM] | Activity [3] [%] | further results |
| --- | --- | --- | --- | --- |
| CCOC(=O)c1cnn(CC(O)c2ccccc2)c1NC(=O)Nc1cccc(F)c1 (stereo not drawn) |  |  |  | inhibition in vivo at 100 mg/kg (Mus musculus [4]): 33% |
| CCOC(=O)c1cnn(CC(O)c2ccccc2)c1NC(=O)N1CCN(Cc2ccccc2)CC1 (stereo not drawn) |  | 14000 |  |  |
| CCOC(=O)c1cnn(CC(O)c2ccccc2)c1NC(=O)NC(C)C (stereo not drawn) |  | 55000 |  |  |
| CCOC(=O)c1cnn(CC(C)O)c1NC(=O)Nc1ccc(F)cc1 (stereo not drawn) | > 10 | 200 | < 3 | inhibition at 10 µM (Neutrophil [5]): 55% |
| CCCC(O)Cn1ncc(C(=O)OCC)c1NC(=O)N1CCN(Cc2ccccc2)CC1 (stereo not drawn) | 1.1 | 90 | < 3 |  |
| CCOC(=O)c1cnn(CC(O)CC)c1NC(=O)Nc1ccccc1F (stereo not drawn) | 120 |  | < 3 |  |
| CCOC(=O)c1cnn(C)c1NC(=O)NC(C)C | 77 | 1.8 | < 3 |  |
| CCOC(=O)c1cnn(CC(C)O)c1NC(=O)Nc1cccc(F)c1 (stereo not drawn) | > 10 | 0.7 | < 3 | inhibition at 10 µM (Neutrophil [5]): 60%; Activity (Mus musculus [6]): 2.68%; Activity (Mus musculus [7]): 23%; Activity (Mus musculus [8]): 21% |
| CCCC(O)Cn1ncc(C(=O)OCC)c1NC(=O)NCc1ccccc1 (stereo not drawn) | 0.43 |  | < 3 |  |
| C[C@@H]1C[C@H]2[C@@H]3CCC4=CC(=O)C=C[C@]4(C)[C@@]3(F)[C@@H](O)C[C@]2(C)[C@@]1(O)C(=O)CO [DEXAMETHASONE] |  |  |  | protein concentration (Mus musculus [9]): 1.75 µg/mL; Activity (Mus musculus [10]): 81%; Activity (Mus musculus [11]): 20%; Activity (Mus musculus [12]): 35% |
| CCOC(=O)c1cnn(CC(O)CC)c1NC(=O)NC(C)C (stereo not drawn) | > 10 |  | < 3 | inhibition at 10 µM (Neutrophil [5]): 52% |
| CCOC(=O)c1cnn(CC(O)CC)c1NC(=O)N1CCN(Cc2ccccc2)CC1 (stereo not drawn) | 2000 | 0.08 | < 3 |  |
| CCOC(=O)c1cnn(CC(C)O)c1NC(=O)Nc1cccc2ccccc12 (stereo not drawn) | 9.8 | 0.97 | < 3 |  |
| CCOC(=O)c1cnn(C)c1NC(=O)NCc1ccccc1 | 18 | 1300 | < 3 |  |
| C/C=C/C[C@@H](C)[C@@H](O)[C@H]1C(=O)N[C@@H](CC)C(=O)N(C)CC(=O)N(C)[C@@H](CC(C)C)C(=O)N[C@@H](C(C)C)C(=O)N(C)[C@@H](CC(C)C)C(=O)N[C@@H](C)C(=O)N[C@H](C)C(=O)N(C)[C@@H](CC(C)C)C(=O)N(C)[C@@H](CC(C)C)C(=O)N(C)[C@@H](C(C)C)C(=O)N1C [CYCLOSPORINE] |  |  |  | IC50 (Neutrophil [1]): 0.047 nM |
| CCOC(=O)c1cnn(CC(O)CC)c1NC(=O)Nc1ccc(F)cc1 (stereo not drawn) | 3.2 | 1900 | < 3 |  |
| CCOC(=O)c1cnn(CC(O)c2ccccc2)c1NC(=O)Nc1cccc2ccccc12 (stereo not drawn) | 7.8 |  | < 3 |  |
| CCOC(=O)c1cnn(CC(O)c2ccccc2)c1NC(=O)NCc1ccccc1 (stereo not drawn) |  | 10000 |  |  |

Now from value to molecule, other results behind:

| IC50 (Neutrophil [1]; read-out: IC50) [nM] | IC50 (Neutrophil [2]) [pM] | SMILES | Activity [3] [%] | further results |
| --- | --- | --- | --- | --- |
| 15 | 0.54 | CCOC(=O)c1cnn(CC(C)O)c1NC(=O)NCc1ccccc1 (stereo not drawn) | < 3 |  |
| 20 | 1000 | CCCC(O)Cn1ncc(C(=O)OCC)c1NC(=O)NC(C)C (stereo not drawn) | < 3 |  |
| 0.19 | 360 | CCOC(=O)c1cnn(CC(O)CC)c1NC(=O)Nc1cccc(F)c1 (stereo not drawn) | < 3 |  |
| > 10 | 0.99 | CCOC(=O)c1cnn(CC(C)O)c1NC(=O)N1CCN(Cc2ccccc2)CC1 (stereo not drawn) | < 3 | inhibition at 10 µM (Neutrophil [5]): 63% |
| 150 | 54.6 | CCOC(=O)c1cnn(C)c1NC(=O)N1CCN(Cc2ccccc2)CC1 | < 3 |  |
|  | 45000 | CCOC(=O)c1cnn(CC(O)c2ccccc2)c1NC(=O)Nc1ccccc1 (stereo not drawn) |  |  |
| 90 | 0.82 | CCOC(=O)c1cnn(CC(C)O)c1NC(=O)NC(C)C (stereo not drawn) | < 3 |  |
| 12 | 9600 | CCOC(=O)c1cnn(CC(O)CC)c1NC(=O)Nc1cccc2ccccc12 (stereo not drawn) | < 3 |  |
| > 10 |  | CCOC(=O)c1cnn(CC(O)CC)c1NC(=O)NCc1ccccc1 (stereo not drawn) | < 3 | inhibition at 10 µM (Neutrophil [5]): 54% |
| 100 | 0.55 | CCOC(=O)c1cnn(CC(C)O)c1NC(=O)Nc1ccccc1F (stereo not drawn) | < 3 | protein concentration (Mus musculus [6]): 2.62 µg/mL; Activity (Mus musculus [8]): 34% |
